Test results reported in patent publication US12564600B2, “System for enhancing therapeutic compliance of the anti-cancer compound E7766” (Eisai R&D Management Co., Ltd., priority 2019, dated 2026).
Values after ≈ are worked out from the molar mass of the structure shown. “Also recorded” adds a separate entry of the source.

Columns and labels:
[1] = Physicochemical properties and ECCS classification of Compound 1
Permeability (Papp) = type: in vitro ADME; conditions: not told
OATP1B1/1B3 [2] = test: Pharmacokinetics in humanized OATP1B1/1B3 mice with or without rifampin co-dose; type: in vivo; conditions: 0.5 mg/kg IV, rifampin 30 mg/kg
Description: Age-matched Oatp1a/1b cluster-knockout, OATP1B1- or OATP1B3-knockin mice humanized on the Oatp1a/1b-knockout background, and wild-type FVB male mice were purchased from Taconic Biosciences (Hudson, N.Y., USA). Mice were between 8 and 10 weeks of age (22-34 g) at the time of study. Compound 1 was administered at a dose of 0.5 mg/kg coadministered with either vehicle or rifampin (30 mg/kg). Blood and liver samples were collected at 0.083, 0.25, 0.5, 1, 1.5, 3, 6 hours. Plasma was isolated from blood samples by centrifugation. All samples were stored at −80° C. until bioanalysis.
Compound 1 was dosed via intravenous administration to WT, humanized, and KO mice. Blood, urine, and feces were collected from the animals over 6 hours. Blood spots were collected and expelled FTA™ DMPK-B DBS Card (GE Healthcare, Life Sciences, Whatman™) within the appropriate sample circle. Pharmacokinetics of Compound 1 in WT animals was also assessed after co-administration with rifampin. Liver samples were also collected from WT animals and frozen until analysis. All samples were analyzed using LC-MS/MS and the pharmacokinetics parameters of Compound 1 were determined with Phoenix WinNonlin using non-compartmental analysis.
FIG. 2A through 2C show an in vivo PK profile and elimination of Compound 1 with and without a co-dose of the Oatp/OATP inhibitor Rifampin in different mouse models.

[3] = system: sandwich-cultured human hepatocytes (SCHH); test: Hepatic uptake in sandwich-cultured human hepatocytes; type: in vitro ADME
Description: Hepatic uptake and hepatobiliary disposition of Compound 1 was evaluated in sandwich-cultured human hepatocytes (SCHH) prepared from one donor. For assessing hepatic uptake, Compound 1 was incubated for 1, 5, and 10 minutes and the solutions were collected and frozen at −80° C. until process for bioanalysis. The wells were then washed three times with ice cold Plus (+) Buffer and were frozen at −80° C. until processed for bioanalysis. Biliary excretion of compound 1 was assessed in SCHH utilizing B-CLEAR® Technology. Briefly, cell culture medium was removed, and hepatocytes were washed twice with warm Plus (+) or Minus (−) Buffer to maintain or disrupt tight junctions, respectively. The wash solutions were removed and replaced with fresh Plus (+) Buffer or Minus (−) Buffer. The hepatocytes were conditioned for 10 minutes at 37° C. The conditioning solutions were removed and replaced with dosing solutions for Compound 1. Following a 20 minute incubation, the solutions were collected and frozen at −80° C. until process for bioanalysis. The wells were then washed three times with ice cold Plus (+) Buffer. The plates were frozen at −80° C. until processed for bioanalysis. The biliary excretion index (BEI) was calculated according to following equation: […]

OATP1B1 = target: T1, OATP1B1 (Homo sapiens, UniProt Q9Y6L6); test: Uptake in HEK293 cells overexpressing OATP1B1; type: in vitro ADME
T1 construct: expressed in transfected cells; host or cells: HEK293-FT
T1 sequence (Q9Y6L6 1-691): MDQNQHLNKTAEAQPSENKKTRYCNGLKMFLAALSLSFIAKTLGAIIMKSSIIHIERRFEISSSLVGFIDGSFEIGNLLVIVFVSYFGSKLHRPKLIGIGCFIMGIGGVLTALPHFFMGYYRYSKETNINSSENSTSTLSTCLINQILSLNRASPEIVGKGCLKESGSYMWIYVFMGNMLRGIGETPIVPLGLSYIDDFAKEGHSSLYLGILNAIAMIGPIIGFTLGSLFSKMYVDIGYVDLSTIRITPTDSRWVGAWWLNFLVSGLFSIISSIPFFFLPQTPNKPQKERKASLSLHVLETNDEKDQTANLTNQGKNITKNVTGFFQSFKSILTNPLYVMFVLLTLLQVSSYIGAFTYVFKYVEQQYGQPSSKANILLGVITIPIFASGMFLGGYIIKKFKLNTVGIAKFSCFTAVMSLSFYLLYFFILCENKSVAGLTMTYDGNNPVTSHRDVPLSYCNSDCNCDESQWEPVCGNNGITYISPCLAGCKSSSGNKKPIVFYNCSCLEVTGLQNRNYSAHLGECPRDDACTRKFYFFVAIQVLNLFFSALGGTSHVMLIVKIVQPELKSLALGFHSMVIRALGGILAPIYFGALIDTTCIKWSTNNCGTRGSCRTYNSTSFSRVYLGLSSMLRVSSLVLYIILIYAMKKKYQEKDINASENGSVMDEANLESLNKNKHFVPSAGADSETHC
Description: TransportoCells™ (Corning, N.Y., USA) expressing OATP2B1, NTCP, and HEK293-FT cells stably transfected with the vector containing OATP1B1 cDNA or OATP1B3 cDNA or empty vector were grown in a Dulbecoo's modified Eagle's medium fortified with 10% fetal calf serum and 2 mmol/L sodium butyrate (for NTCP only) in a humidified incubator at 37° C. and 5% CO2. Cells were harvested at 90% confluence and then seeded in poly-D-lysine-coated 24-well 24 h prior to transporter assay. Cells were washed twice and pre-incubated with 200 μL of pre-warmed Krebs-Henseleit buffer. After pre-incubation, cells were incubated with 3 or 10 μmol L-1 of Compound 1 in presence or absence of 100 μmol L-1 of inhibitors (Rifamycin SV for OATP2B1, Troglitazone for NTCP, Rifamycin for OATP1B1 and OATP1B3). The transport reaction was terminated by aspirating the buffer from the wells at designated time. After washing three times with 200 μL of ice-cold Krebs-Henseleit buffer, the cells were lysed and the resulting cellular lysates were analyzed by LC-MS/MS.
Concentration-dependent uptake of Compound 1 via OATP1B1 and OATP1B3 were conducted with a concentration range of 0.25-100 μmol L-1 under linear uptake. All experiments were run in triplicates.

OATP1B1/1B3 [4] = test: Simcyp PBPK modeling of OATP1Bs-mediated drug-drug interaction; parameters: species or system human; conditions: Simcyp input parameter
Description: PBPK modeling was conducted using the Simcyp™ in silico bottom-up PBPK modeling.
Simcyp™ software Version 17.0.0 was used. Simcyp™ parameters are shown below in Table 3.

O=[P@]1(S)OC[C@H]2O[C@@H]3[C@H](F)[C@@H]2O[P@](=O)(S)OC[C@H]2O[C@H]([C@H](F)[C@@H]2O1)n1cnc2c(ncnc21)NC/C=C/CNc1ncnc2c1ncn23 [Compound 1]
solubility [1]: 150 µM (≈ 112 µg/mL)
logD ([1]; read-out: measured Log D): 1.31
pKa ([1]; read-out: measured pKa): 3.41
Papp (Permeability (Papp)): 0.36 ×10⁻⁶ cm/s
increase in plasma concentration/exposure in the presence of rifampin (OATP1B1/1B3 [2]): 4.5 fold
concentration at which hepatic uptake is saturated ([3]; SCHH): > 1000 nM
dose proportionality of hepatic uptake ([3]; SCHH, 0.3 to 1 μM, 1 to 5 minutes of exposure): approximately dose-proportional
hepatic uptake at 4° C. relative to 37° C. ([3]; SCHH, incubation at 4° C.): < 7.7 % of 37 °C
mechanism of uptake in human hepatocytes ([3]; human hepatocytes): temperature-dependent active uptake
inhibition of hepatocyte uptake by transporter inhibitors ([3]; human hepatocytes, Rifampin, tetraethylammonium): could be inhibited by Rifampin but not by tetraethylammonium
substrate of OATP1B1 (OATP1B1; HEK293 cells overexpressing human OATP1B1): responsible for hepatic uptake; also recorded: substrate
Jmax (pmol/min/million cells), OATP1B1 (OATP1B1; Simcyp input parameter, Table 3): 8.34 pmol/min/million cells
CL R (OATP1B1/1B3 [4]): 2.000 L/h
